Measured values as given in ChEMBL document CHEMBL5291721, “A preclinical secondary pharmacology resource illuminates target-adverse drug reaction associations of marketed drugs” (Nat Commun, 2023).

Assays:
D(3) dopamine receptor = D(3) dopamine receptor (Homo sapiens, UniProt P35462)
[1] = target: Muscarinic acetylcholine receptor M3 (Homo sapiens, UniProt P20309)
[2] = target: Delta-type opioid receptor (Homo sapiens, UniProt P41143)
[3] = target: T1, 5-hydroxytryptamine receptor 2C (Homo sapiens, UniProt P28335)
T1 sequence (P28335 whole entry): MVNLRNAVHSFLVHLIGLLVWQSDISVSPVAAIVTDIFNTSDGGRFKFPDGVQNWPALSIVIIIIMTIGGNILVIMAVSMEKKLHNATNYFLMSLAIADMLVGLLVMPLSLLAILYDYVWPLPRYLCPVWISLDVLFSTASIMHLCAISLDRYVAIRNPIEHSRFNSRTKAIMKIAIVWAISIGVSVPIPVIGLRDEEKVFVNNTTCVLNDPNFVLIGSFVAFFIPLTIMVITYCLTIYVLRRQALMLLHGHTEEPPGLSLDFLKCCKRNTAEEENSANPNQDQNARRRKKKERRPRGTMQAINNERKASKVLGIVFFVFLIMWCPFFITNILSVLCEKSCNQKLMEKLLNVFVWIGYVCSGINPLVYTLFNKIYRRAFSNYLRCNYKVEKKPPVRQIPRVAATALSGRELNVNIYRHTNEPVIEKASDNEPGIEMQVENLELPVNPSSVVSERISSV

Motilin receptor = Motilin receptor (Homo sapiens, UniProt O43193)
Adenosine receptor A1 = target: T2, Adenosine receptor A1 (Homo sapiens, UniProt P30542)
T2 sequence (P30542 whole entry): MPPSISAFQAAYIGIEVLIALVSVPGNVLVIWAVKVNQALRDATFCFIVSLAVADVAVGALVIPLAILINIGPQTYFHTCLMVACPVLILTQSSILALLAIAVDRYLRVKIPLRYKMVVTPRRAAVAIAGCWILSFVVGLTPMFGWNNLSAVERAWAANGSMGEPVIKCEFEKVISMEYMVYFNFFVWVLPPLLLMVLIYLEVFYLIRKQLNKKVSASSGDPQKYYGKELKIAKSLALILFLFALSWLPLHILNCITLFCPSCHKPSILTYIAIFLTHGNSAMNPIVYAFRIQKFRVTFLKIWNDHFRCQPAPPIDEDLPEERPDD

[4] = target: T3, Alpha-2B adrenergic receptor (Homo sapiens, UniProt P18089)
T3 sequence (P18089 whole entry): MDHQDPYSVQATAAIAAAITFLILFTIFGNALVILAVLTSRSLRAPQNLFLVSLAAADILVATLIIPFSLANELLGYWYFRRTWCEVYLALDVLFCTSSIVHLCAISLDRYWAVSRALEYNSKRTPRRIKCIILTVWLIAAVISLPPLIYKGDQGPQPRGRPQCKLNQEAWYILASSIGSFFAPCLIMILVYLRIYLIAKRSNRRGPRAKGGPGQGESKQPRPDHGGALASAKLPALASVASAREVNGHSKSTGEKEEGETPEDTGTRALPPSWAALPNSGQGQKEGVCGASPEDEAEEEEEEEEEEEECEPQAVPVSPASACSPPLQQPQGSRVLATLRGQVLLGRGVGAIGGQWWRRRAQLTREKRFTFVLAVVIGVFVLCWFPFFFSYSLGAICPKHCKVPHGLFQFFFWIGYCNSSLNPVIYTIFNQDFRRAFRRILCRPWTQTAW

[5] = target: T4, Cholecystokinin receptor type A (Homo sapiens, UniProt P32238)
T4 sequence (P32238 whole entry): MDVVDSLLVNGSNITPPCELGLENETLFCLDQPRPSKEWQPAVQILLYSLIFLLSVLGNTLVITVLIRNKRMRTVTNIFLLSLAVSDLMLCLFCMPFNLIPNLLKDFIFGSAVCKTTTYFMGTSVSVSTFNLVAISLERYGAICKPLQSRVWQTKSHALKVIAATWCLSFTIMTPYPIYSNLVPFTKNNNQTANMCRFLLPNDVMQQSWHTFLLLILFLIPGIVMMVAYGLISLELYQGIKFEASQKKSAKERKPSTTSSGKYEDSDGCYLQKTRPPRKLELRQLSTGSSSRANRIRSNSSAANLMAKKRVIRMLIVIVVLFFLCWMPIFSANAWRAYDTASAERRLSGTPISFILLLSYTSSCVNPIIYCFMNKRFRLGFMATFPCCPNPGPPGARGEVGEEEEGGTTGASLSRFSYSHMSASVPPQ

[6] = target: T5, Muscarinic acetylcholine receptor M2 (Homo sapiens, UniProt P08172); assay type: functional, cell-based
T5 sequence (P08172 whole entry): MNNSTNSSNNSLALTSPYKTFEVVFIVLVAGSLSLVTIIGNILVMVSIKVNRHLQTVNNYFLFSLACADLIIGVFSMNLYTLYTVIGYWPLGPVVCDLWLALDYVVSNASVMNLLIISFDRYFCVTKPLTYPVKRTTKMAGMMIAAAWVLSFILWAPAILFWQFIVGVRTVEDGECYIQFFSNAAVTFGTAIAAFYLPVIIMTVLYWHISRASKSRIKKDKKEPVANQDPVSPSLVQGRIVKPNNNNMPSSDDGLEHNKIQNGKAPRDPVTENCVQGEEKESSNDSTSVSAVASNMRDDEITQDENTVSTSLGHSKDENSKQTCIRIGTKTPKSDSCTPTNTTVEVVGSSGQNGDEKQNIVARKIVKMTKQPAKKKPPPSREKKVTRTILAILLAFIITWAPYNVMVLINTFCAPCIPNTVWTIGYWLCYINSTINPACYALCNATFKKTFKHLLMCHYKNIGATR

Cannabinoid receptor 1 = Cannabinoid receptor 1 (Homo sapiens, UniProt P21554); assay type: functional, cell-based
[7] = target: 5-hydroxytryptamine receptor 2B (Homo sapiens, UniProt P41595); assay type: functional, cell-based
[8] = target: T6, 5-hydroxytryptamine receptor 1A (Homo sapiens, UniProt P08908); assay type: functional, cell-based
T6 sequence (P08908 whole entry): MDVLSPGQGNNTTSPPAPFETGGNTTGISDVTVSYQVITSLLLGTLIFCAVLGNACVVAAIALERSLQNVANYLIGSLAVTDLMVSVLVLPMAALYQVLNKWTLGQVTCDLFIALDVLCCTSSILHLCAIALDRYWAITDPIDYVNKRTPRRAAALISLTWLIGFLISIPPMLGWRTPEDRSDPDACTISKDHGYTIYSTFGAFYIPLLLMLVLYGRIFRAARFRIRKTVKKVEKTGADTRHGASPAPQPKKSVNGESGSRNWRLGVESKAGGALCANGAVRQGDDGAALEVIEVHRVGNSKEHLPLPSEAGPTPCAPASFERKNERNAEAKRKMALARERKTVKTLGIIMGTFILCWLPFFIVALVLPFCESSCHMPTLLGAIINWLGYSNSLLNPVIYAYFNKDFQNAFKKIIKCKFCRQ
Also: assay procedure not described here.

Sequence of Delta-type opioid receptor (P41143 whole entry): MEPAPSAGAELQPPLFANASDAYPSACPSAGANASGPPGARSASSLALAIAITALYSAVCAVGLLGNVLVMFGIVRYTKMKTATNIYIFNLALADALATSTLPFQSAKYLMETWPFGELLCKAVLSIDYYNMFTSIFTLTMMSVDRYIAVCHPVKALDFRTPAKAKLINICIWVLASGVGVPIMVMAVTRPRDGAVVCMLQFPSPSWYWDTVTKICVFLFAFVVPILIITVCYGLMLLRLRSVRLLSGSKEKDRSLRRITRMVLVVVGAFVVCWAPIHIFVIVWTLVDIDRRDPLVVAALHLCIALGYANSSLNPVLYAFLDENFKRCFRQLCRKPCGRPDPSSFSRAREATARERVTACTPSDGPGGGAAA
Sequence of Motilin receptor (O43193 whole entry): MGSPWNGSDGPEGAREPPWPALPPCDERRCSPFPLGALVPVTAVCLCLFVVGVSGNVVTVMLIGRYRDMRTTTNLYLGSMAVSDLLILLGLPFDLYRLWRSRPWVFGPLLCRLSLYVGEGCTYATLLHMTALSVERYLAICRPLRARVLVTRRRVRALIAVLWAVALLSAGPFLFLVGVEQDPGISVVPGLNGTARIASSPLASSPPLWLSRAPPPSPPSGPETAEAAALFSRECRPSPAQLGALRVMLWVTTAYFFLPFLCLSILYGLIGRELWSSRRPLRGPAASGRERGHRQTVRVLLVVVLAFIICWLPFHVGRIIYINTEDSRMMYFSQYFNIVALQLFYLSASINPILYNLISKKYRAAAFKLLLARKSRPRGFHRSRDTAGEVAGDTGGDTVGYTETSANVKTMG
Sequence of 5-hydroxytryptamine receptor 2B (P41595 whole entry): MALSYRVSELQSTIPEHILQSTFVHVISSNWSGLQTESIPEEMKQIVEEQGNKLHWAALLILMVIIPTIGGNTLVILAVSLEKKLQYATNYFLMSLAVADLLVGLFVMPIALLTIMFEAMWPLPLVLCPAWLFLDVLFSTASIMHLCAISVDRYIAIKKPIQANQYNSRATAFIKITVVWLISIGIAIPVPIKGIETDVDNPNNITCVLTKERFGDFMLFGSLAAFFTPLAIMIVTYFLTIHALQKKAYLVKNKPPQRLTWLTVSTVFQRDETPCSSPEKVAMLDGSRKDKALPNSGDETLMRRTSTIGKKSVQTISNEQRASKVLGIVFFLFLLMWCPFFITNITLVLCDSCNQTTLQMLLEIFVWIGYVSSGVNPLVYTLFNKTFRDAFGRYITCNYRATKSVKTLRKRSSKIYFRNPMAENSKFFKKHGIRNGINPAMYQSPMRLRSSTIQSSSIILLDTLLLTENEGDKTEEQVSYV
Sequence of Muscarinic acetylcholine receptor M3 (P20309 whole entry): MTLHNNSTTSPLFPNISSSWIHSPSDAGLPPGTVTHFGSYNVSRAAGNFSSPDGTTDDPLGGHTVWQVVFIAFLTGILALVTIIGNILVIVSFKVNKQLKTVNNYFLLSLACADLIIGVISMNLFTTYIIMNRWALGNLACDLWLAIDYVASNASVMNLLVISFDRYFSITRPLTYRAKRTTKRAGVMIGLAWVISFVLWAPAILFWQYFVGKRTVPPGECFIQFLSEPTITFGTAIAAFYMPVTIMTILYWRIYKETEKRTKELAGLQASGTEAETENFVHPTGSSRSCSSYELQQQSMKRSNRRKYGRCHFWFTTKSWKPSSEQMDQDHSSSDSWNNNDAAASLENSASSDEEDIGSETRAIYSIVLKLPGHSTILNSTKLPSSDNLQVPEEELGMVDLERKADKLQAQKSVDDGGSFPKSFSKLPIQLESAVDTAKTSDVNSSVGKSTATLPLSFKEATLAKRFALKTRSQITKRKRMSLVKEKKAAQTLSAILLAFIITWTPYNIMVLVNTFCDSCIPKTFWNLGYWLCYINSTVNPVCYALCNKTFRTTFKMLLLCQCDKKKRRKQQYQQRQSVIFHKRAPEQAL
Sequence of D(3) dopamine receptor (P35462 whole entry): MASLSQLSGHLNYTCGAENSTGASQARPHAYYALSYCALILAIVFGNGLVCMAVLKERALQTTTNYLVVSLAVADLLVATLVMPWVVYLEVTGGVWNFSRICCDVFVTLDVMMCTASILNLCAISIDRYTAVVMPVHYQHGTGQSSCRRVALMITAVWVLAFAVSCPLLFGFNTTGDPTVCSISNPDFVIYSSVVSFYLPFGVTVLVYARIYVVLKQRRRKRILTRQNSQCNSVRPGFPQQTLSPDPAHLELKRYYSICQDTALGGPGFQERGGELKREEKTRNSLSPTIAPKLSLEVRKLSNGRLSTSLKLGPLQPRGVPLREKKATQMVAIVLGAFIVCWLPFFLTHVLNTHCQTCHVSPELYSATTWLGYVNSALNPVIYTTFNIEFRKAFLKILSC
Sequence of Cannabinoid receptor 1 (P21554 whole entry): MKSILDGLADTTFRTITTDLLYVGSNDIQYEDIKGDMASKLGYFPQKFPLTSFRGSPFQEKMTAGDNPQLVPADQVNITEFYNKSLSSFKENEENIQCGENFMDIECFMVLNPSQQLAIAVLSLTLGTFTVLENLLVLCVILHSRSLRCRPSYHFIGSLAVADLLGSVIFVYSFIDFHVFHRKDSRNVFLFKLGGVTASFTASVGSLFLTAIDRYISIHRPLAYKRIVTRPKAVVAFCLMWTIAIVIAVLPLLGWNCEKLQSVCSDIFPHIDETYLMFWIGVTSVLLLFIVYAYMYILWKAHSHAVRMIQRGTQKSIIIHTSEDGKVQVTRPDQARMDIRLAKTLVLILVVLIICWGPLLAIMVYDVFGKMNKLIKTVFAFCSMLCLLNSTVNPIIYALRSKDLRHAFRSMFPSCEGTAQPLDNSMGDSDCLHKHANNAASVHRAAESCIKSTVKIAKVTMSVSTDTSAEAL

Row | AC50 (D(3) dopamine receptor) [µM] | AC50 [1] [µM] | AC50 [2] [µM] | AC50 [3] [µM] | AC50 (Motilin receptor) [µM] | AC50 (Adenosine receptor A1) [µM] | AC50 [4] [µM] | AC50 [5] [µM] | SMILES | AC50 [6] [µM] | AC50 (Cannabinoid receptor 1) [µM] | AC50 [7] [µM] | AC50 [8] [µM]
1 | > 30 | > 30 | > 30 | > 30 | > 30 | > 30 | > 30 | > 30 | CC(C)(Oc1ccc(Cl)cc1)C(=O)OCCOC(=O)c1cccnc1 [ETOFIBRATE] | > 30 | > 30 | > 30 | 
2 |  |  |  |  |  |  |  |  | Cc1cn(-c2cc(NC(=O)c3ccc(C)c(Nc4nccc(-c5cnccn5)n4)c3)cc(C(F)(F)F)c2)cn1 [RADOTINIB] | > 30 |  |  | 
3 | > 30 | > 30 | > 30 | > 30 | > 10 | 5.9 | > 30 | > 10 | COc1ccc(-c2cc(=S)ss2)cc1 [ANETHOLTRITHION] | > 30 | > 30 | > 30 | > 30
4 | > 30 | > 30 | > 30 | > 30 | > 30 | > 30 | > 30 | > 30 | C[C@]12CCC(=O)C=C1[C@@H]1C[C@@H]1[C@H]1[C@@H]3[C@@H]4C[C@@H]4[C@@]4(CCC(=O)O4)[C@@]3(C)CC[C@@H]12 [DROSPIRENONE] | > 10 |  |  | > 30
5 | > 30 |  | > 30 | > 30 | > 10 | > 30 |  | > 30 | C[C@]12C=CC(=O)C=C1CC[C@@H]1[C@@H]2[C@@H](O)C[C@@]2(C)[C@H]1CC[C@]2(O)C(=O)CO [PREDNISOLONE] | > 10 | > 30 | > 10 | > 10
6 | > 30 |  | > 30 | > 30 | > 30 | > 30 |  | > 30 | CC1(C)O[C@@H]2C[C@H]3[C@@H]4CCC5=CC(=O)C=C[C@]5(C)[C@@]4(F)[C@@H](O)C[C@]3(C)[C@]2(C(=O)CO)O1 [TRIAMCINOLONE ACETONIDE] | > 30 | > 30 | > 30 | > 30
7 | 0.53 | 0.18 | > 30 | 0.18 | > 10 | > 10 | 0.32 | > 10 | CCC(=O)c1ccc2c(c1)N(CC(C)N(C)C)c1ccccc1S2 (stereo unspecified) [PROPIOMAZINE] | 1.1 |  | 0.23 | > 30

Row | SMILES | AC50 (D(3) dopamine receptor) [µM] | AC50 [1] [µM] | AC50 [2] [µM] | AC50 [3] [µM] | AC50 (Motilin receptor) [µM] | AC50 (Adenosine receptor A1) [µM] | AC50 [4] [µM] | AC50 [5] [µM] | AC50 [6] [µM] | AC50 (Cannabinoid receptor 1) [µM] | AC50 [7] [µM] | AC50 [8] [µM]
8 | N=C(N)NC(=O)c1nc(Cl)c(N)nc1N [AMILORIDE] | > 30 |  | > 30 | > 30 | > 30 | > 30 |  | > 30 | > 30 |  | > 30 | > 30
9 | Cc1ccc(O)c([C@H](CCN(C(C)C)C(C)C)c2ccccc2)c1 [TOLTERODINE] | > 10 |  | > 10 | > 30 |  |  | > 10 |  |  | > 30 | > 10 | > 10
10 | COc1cccc2c1C(=O)c1c(O)c3c(c(O)c1C2=O)C[C@@](O)(C(=O)CO)C[C@@H]3O[C@H]1C[C@H](N)[C@H](O)[C@H](C)O1 [DOXORUBICIN] | > 30 |  | > 30 | > 30 | > 30 | > 30 |  | > 30 | > 10 | > 30 | 15 | > 30
11 | CC(C)(C)NCC(O)COc1ccccc1C#N (stereo unspecified) [BUNITROLOL] | > 30 | > 30 | > 30 | > 30 |  |  | 26 |  | > 30 | > 30 | 21 | > 30
12 | COc1ccc(C(=O)c2ccccc2)c(O)c1 [OXYBENZONE] | > 30 | > 30 | > 30 | > 30 |  |  | > 30 |  | > 30 | > 30 | > 30 | > 30
13 | CCn1c(=O)c2c(nc(/C=C/c3ccc(OC)c(OC)c3)n2C)n(CC)c1=O [ISTRADEFYLLINE] |  |  |  |  |  | 23 |  |  | > 30 |  |  | 
